# How the values were obtained:
# [1] = tested on: ESBL negative E. coli (ATCC 35218); experiment: AST on the MDT system (broth microdilution) at various inoculum concentrations; assay type: cell-based
# Experimental: (§1) The MIC of cefepime against E. coli was determined according to the standard CLSI guideline except for the concentration of bacteria. 16 h after culture at 37° C., broth microdilution wells were examined.
# (§2) The first reason is that large inoculum amounts of antibiotic degrading proteins derived from bacteria may destroy antibiotics and result in an increase in MIC value. The other reason is that larger inoculum amounts of […] bacteria may decrease the number of antibiotic molecules relative to single cells of bacteria and result in an increase in MIC. To verify the reasons for the absence of inoculum effect in the DAC system, ESBL negative E. coli (ATCC 35218), ESBL positive E. coli (ATCC 25922), and clinically obtained E. coli strains, which are well known as a bacterial strain secreting antibiotic-degrading proteins, were tested at inoculum concentrations of 5×10^7, 5×10^6, and 5×10^5 CFU/ml. These concentrations indicate the concentrations of the bacteria in agarose for the DAC system and in liquid for the MDT system.
# [2] = tested on: ESBL positive E. coli (ATCC 25922); experiment: as above; assay type: cell-based
# Experimental: as §1, §2
# [3] = tested on: clinically obtained E. coli strain #5; experiment: as above; assay type: cell-based; details: #5 strain
# Experimental: as §1, §2
# [4] = tested on: ESBL negative E. coli (ATCC 35218); experiment: AST on the DAC system at various inoculum concentrations; assay type: cell-based; details: unit inferred
# From the text: as §2
# [5] = tested on: ESBL positive E. coli (ATCC 25922); experiment: as above; assay type: cell-based; details: unit inferred
# From the text: as §2
# [6] = tested on: clinically obtained E. coli strain #5; experiment: as above; assay type: cell-based; details: #5 strain, unit inferred
# From the text: as §2
# [7] = tested on: ESBL positive E. coli strains; experiment: Residual efficacy of antibiotic solution after overnight culture, re-tested by MDT; assay type: cell-based; details: Escherichia coli
# Experimental: At each time point, the culture media were filtered to remove the cells and then added to different DST sets to measure the residual efficacies of the antibiotics. Both broth […] and DAC protocol were performed in the same manner as described above.
# The present inventors hypothesized that the reason why the absence of inoculum effect in the DAC system may be because proteins released from bacteria are trapped by agarose and cannot degrade the antibiotic, unlike under broth culture conditions. […] These concentrations indicate the concentrations of the bacteria in […] for the DAC system and in liquid for the MDT system.
# Thus, the final concentrations of the bacteria in the DAC and […] systems were the same. Cefepime was used in these tests. After culture overnight, the antibiotic solutions in the wells of the DAC and MDT systems was extracted and filtered to obtain the pure antibiotic. MDT using ESBL positive E. coli strains was conducted using the antibiotic.
# clinical strain KHS = experiment: Inoculum effect on clinical strains on the DAC system; assay type: cell-based, Mycobacterium tuberculosis
# Experimental: (§3) Mycobacterium tuberculosis identified by ZN staining and grown from an L-J slope or MGIT tube and was subjected to DST. For the preparation of inoculation from the LJ culture, colonies up to 14 days were extracted from the grown culture. The colonies were shaken with glass beads to crush large lumps. To obtain a high density (˜5×10^9 CFU/ml), the suspension was centrifuged at 3000 g for 10 min and pellets were resuspended in sterile PBS. Subsequently, the suspension was added to liquid agarose, inoculated in a bacteria-agarose mixture within the range of 10^1 to 5×10^8 CFU/ml, and loaded in the main channel After solidification, 7H9 broth containing each antibiotic was applied to the chamber. All bacterial cells were imaged with an inverted optical microscope (IS71, Olympus).
# (§4) Clinical strains express various phenotypes, particularly, in drug susceptibility. […] Rifampicin, isoniazid, streptomycin, and ethambutol were used as test drugs. For the 131 strains, the highest concentration was 1.3×10^9.
# clinical strain CYD = experiment: as above; assay type: cell-based, Mycobacterium tuberculosis
# Experimental: as §3, §4
# clinical strain MSH = experiment: as above; assay type: cell-based, Mycobacterium tuberculosis
# Experimental: as §3, §4
# clinical strain 131 = experiment: as above; assay type: cell-based, Mycobacterium tuberculosis
# Experimental: as §3, §4
# clinical strain 1088 = experiment: as above; assay type: cell-based, Mycobacterium tuberculosis
# Experimental: as §3, §4
# clinical strain CMS = experiment: as above; assay type: cell-based, Mycobacterium tuberculosis
# Experimental: as §3, §4
# XDR-TB clinical strain = experiment: DST of MTB using the DAC system (MIC from time-lapse images); assay type: cell-based, Mycobacterium tuberculosis
# standard strain H37Rv = experiment: Inoculum effect test, DST on the DAC system; assay type: cell-based, Mycobacterium tuberculosis
# MDR-TB clinical strain = experiment: DST of MTB using the DAC system (MIC from time-lapse images); assay type: cell-based, Mycobacterium tuberculosis
# M. tuberculosis H37Rv = experiment: as above; assay type: cell-based, Mycobacterium tuberculosis
# [8] = inoculum 5*10^5 CFU/ml in liquid, unit not given
# [9] = inoculum 5*10^6 CFU/ml in liquid, unit inferred
# [10] = inoculum 5*10^7 CFU/ml in liquid, unit inferred
# [11] = inoculum 5*10^5 CFU/ml in agarose
# [12] = inoculum 5*10^6 CFU/ml in agarose
# [13] = inoculum 5*10^7 CFU/ml in agarose
# [14] = inoculum 10^4/mL, DAC, unit inferred
# [15] = inoculum 10^5/mL, DAC, unit inferred
# [16] = inoculum 10^6/mL, MAC2, unit inferred
# [17] = inoculum 10^7/mL, MAC2, unit inferred
# [18] = inoculum 10^3/mL, DAC, unit inferred
# [19] = Mycobacterium tuberculosis, 120 h
structure (smiles),measurement,setting,value
CO/N=C(\C(=O)N[C@@H]1C(=O)N2C(C(=O)[O-])=C(C[N+]3(C)CCCC3)CS[C@H]12)c1csc(N)n1 [Cefepime],"MIC (AST result, MDT)",[1]; [8],All growth
same,"MIC (AST result, MDT)",[1]; [9],0.03 µg/mL
same,"MIC (AST result, MDT)",[1]; [10],0.03 µg/mL
same,"MIC (AST result, MDT)",[2]; [8],All growth
same,"MIC (AST result, MDT)",[2]; [9],4 µg/mL
same,"MIC (AST result, MDT)",[2]; [10],0.03 µg/mL
same,"MIC (AST result, MDT)",[3]; [8],All growth
same,"MIC (AST result, MDT)",[3]; [9],64 µg/mL
same,"MIC (AST result, MDT)",[3]; [10],16 µg/mL
same,"MIC (AST result, DAC)",[4]; [11],0.06 µg/mL
same,"MIC (AST result, DAC)",[4]; [12],0.06 µg/mL
same,"MIC (AST result, DAC)",[4]; [13],0.06 µg/mL
same,"MIC (AST result, DAC)",[5]; [11],0.03 µg/mL
same,"MIC (AST result, DAC)",[5]; [12],0.03 µg/mL
same,"MIC (AST result, DAC)",[5]; [13],0.03 µg/mL
same,"MIC (AST result, DAC)",[6]; [11],< 16 µg/mL
same,"MIC (AST result, DAC)",[6]; [12],< 16 µg/mL
same,"MIC (AST result, DAC)",[6]; [13],< 16 µg/mL
same,MIC,[7]; antibiotic solution recovered from DAC wells after overnight culture with 5*10^5 CFU/ml ESBL positive E. coli,0.06 µg/mL
same,MIC,[7]; antibiotic solution recovered from DAC wells after overnight culture with 5*10^6 CFU/ml ESBL positive E. coli,0.06 µg/mL
same,MIC,[7]; antibiotic solution recovered from DAC wells after overnight culture with 5*10^7 CFU/ml ESBL positive E. coli,0.06 µg/mL
same,MIC,[7]; antibiotic solution recovered from MDT wells after overnight culture with 5*10^5 CFU/ml ESBL positive E. coli,0.03 µg/mL
same,MIC,[7]; antibiotic solution recovered from MDT wells after overnight culture with 5*10^6 CFU/ml ESBL positive E. coli,0.125 µg/mL
same,MIC,[7]; antibiotic solution recovered from MDT wells after overnight culture with 5*10^7 CFU/ml ESBL positive E. coli,0.25 µg/mL
"CC[C@@H](CO)NCCN[C@@H](CC)CO [EMB, ethambutol]",MIC (DAC),clinical strain KHS; [14],2.5 µg/mL
same,MIC (DAC),clinical strain KHS; [15],1.25 µg/mL
same,MIC (DAC),clinical strain KHS; [16],2.5 µg/mL
same,MIC (DAC),clinical strain KHS; [17],2.5 µg/mL
same,MIC (DAC),clinical strain CYD; [14],2.5 µg/mL
same,MIC (DAC),clinical strain CYD; [15],2.5 µg/mL
same,MIC (DAC),clinical strain CYD; [16],2.5 µg/mL
same,MIC (DAC),clinical strain CYD; [17],5 µg/mL
same,MIC (DAC),clinical strain MSH; [14],1.25 µg/mL
same,MIC (DAC),clinical strain MSH; [15],2.5 µg/mL
same,MIC (DAC),clinical strain MSH; [16],2.5 µg/mL
same,MIC (DAC),clinical strain MSH; [17],1.25 µg/mL
same,MIC (DAC),clinical strain 131; [18],> 10 µg/mL
same,MIC (DAC),clinical strain 131; [14],> 10 µg/mL
same,MIC (DAC),clinical strain 131; [15],> 10 µg/mL
same,MIC (DAC),clinical strain 131; [16],> 10 µg/mL
same,MIC (DAC),clinical strain 131; [17],> 10 µg/mL
same,MIC (DAC),clinical strain 1088; [18],10 µg/mL
same,MIC (DAC),clinical strain 1088; [14],10 µg/mL
same,MIC (DAC),clinical strain 1088; [15],10 µg/mL
same,MIC (DAC),clinical strain 1088; [16],≥ 10 µg/mL
same,MIC (DAC),clinical strain 1088; [17],≥ 10 µg/mL
same,MIC (DAC),clinical strain CMS; [14],1.25 µg/mL
same,MIC (DAC),clinical strain CMS; [15],1.25 µg/mL
same,MIC (DAC),clinical strain CMS; [16],2.5 µg/mL
same,MIC (DAC),clinical strain CMS; [17],2.5 µg/mL
same,susceptibility determined from the MIC data and the critical concentrations,"XDR-TB clinical strain; DAC system, XDR strain",R
same,MIC,XDR-TB clinical strain; [19],10 µg/mL
same,MIC (DAC),standard strain H37Rv; [18],2.5 µg/mL
same,MIC (DAC),standard strain H37Rv; [14],1.25 µg/mL
same,MIC (DAC),standard strain H37Rv; [15],1.25 µg/mL
same,MIC (DAC),standard strain H37Rv; [16],2.5 µg/mL
same,MIC (DAC),standard strain H37Rv; [17],2.5 µg/mL
same,susceptibility determined from the MIC data and the critical concentrations,"MDR-TB clinical strain; DAC system, MDR strain",R
same,MIC,MDR-TB clinical strain; [19],> 10 µg/mL
same,susceptibility determined from the MIC data and the critical concentrations,M. tuberculosis H37Rv,S
same,MIC,"M. tuberculosis H37Rv; Mycobacterium tuberculosis, 120 h, images over 5 days",5 µg/mL
same,susceptibility of the strain (in words),M. tuberculosis H37Rv; from the MIC data,sensitive

# From US10533207B2, “Bioactivity testing structure for single cell tracking using gelling agents” (QuantaMatrix Inc., priority 2014, dated 2020)
